Results reported in patent US8481592B2, “Uses of sesquiterpene derivatives” (Kwang Dong Pharm Co., Ltd., priority 2008, dated 2013).
Where a name gives a salt, the structure may show the parent alone. Marks after values point to notes of the source that are not given here.

Experiments:
[1] = Physical characteristics of the compounds (solubility, stability); conditions: easily dissolved in organic solvent having lower polarity than ethanol, but not water
C. elegans = test: Anti-obesity effect (fat content by Nile red staining) in C. elegans; type: in vivo, Caenorhabditis elegans; design: key to Fat content: A low fat content was indicated by +1; a high fat content was assigned with +4; conditions: for inhibitory effect on adipogenesis: low concentration of 1 μg/ml; for Fat content: Nile red staining
Procedure: Using a dissecting microscope (×50 magnification), C. elegans at the 4th stage (L4, the imaginal stage) was transferred to 3 ml of a cholesterol-supplemented S-medium (containing NaCl, K2HPO4, KH2PO4, cholesterol, citrate, trace metals, CaCl2 and MgSO4), and 100 μl of E. coli OP50 (OD600=0.2) liquid-cultured overnight before 1 day of experiment was added thereto. The Pterocarpus indicus fraction sample was added to the liquid media containing C. elegans, followed by rotary culture in a dark room at 16° C. and 100 rpm. The water-insoluble sample was dissolved in DMSO and added to the culture media. The final concentration of DMSO was adjusted below 1%. […] 24 hours after the sample was added to C. elegans, 30 μl of a Nile red dye at a concentration of 10 μg/ml was added (final concentration of Nile red was adjusted to 100 ng/ml) to the media, followed by continuous rotary culture for 2 days.
In order to arrest the locomotory movement of C. elegan, 20 μl of 0.3% NaN3 was dropped on a slide glass to which 100 μl of C. elegans cultured in the presence of Nile red for 2 days was added. Under a fluorescence microscope, adipocytes of C. elegans emitting red fluorescence in a dark room were micrographed and compared with the control group to thereby determine the amount of fat. A low fat content was indicated by +1, whereas a high fat content was assigned with +4. Adult (L4 stage) C. elegans immediately prior to egg-laying were used in this Example. Therefore, the eggs were hatched after sample treatment and most of adult C. elegans were killed at 3 day post-treatment. A fat content was examined in C. elegans which had newly hatched and grown.

[2] = Biochemical index of blood and liver tissue in mice fed high fat diet containing sesquiterpene compound; type: in vivo, mouse; conditions: for Liver Triglyceride / IRI (insulin resistance index) / Plasma Glucose / Plasma Insulin / Plasma Total cholesterol / Plasma Triglyceride: HFD with compound in diet, 8 weeks; for IRI (insulin resistance index) / Plasma Glucose / Plasma Insulin / Plasma Total cholesterol / Plasma Triglyceride: fasted
Procedure: The composition of diet is described in the following Table 5. […] After experimental animals were fasted for above 12 hrs, they were anesthetized with diethylether, and their blood, liver and visceral fat tissues (epididymal fat, perirenal fat, mesenteric fat and abdominal fat) were collected. And then, they were washed with 0.1 M phosphate-buffered saline (pH 7.4), and their weights were measured. […] Concentration of total Plasma cholesterol, triglyceride and glucose was measured twice according to commercially available measurement kit (Bio Clinical system), respectively. Insulin concentration was measured by ELISA using mouse insulin kit (Shibayaki, Japan). […] The homogenate was mixed with 5 ml of chloroform:methanol solution (2:1, v/v), and centrifuged at 1,000×g for 10 min to separate lower phase. […] Three ml of chloroform:methanol:0.05% CaCl2 solution (3:48:47, v/v/v) were added to the resulting lower phase, and thoroughly mixed for 1 min. The mixture was centrifuged at 1,000×g for 10 min. The final lower phase was completely dried on nitrogen gas, and the dried lipid was dissolved in 1 ml of methanol to use analysis of lipid component. Triglyceride concentration in lipid extracts from liver tissues was measured according to commercially available measurement kit (Bio Clinical system) equal to that used in analysis of plasma.

[3] = Body weight gain and total visceral fat weight in mice fed high fat diet containing sesquiterpene compound; type: in vivo, mouse; conditions: for Body weight gain / total visceral fat weight: HFD with 0.2% compound in diet, C57BL mice, 8 weeks; for total visceral fat weight: epididymal, perirenal, mesenteric and abdominal fat
Description: Obesity-inducible diet used in the present experiment was high fat diet (HFD: 40% fat calorie, 17 g Lard+3% maize oil/100 g diet) developed by the present inventors and the composition of diet containing sesquiterpene compounds was equal to that of HFD but each 8 sesquiterpene compounds with a concentration of 0.2% was included in diet [cedryl acetate-containing diet, (−)-α-cedrene-containing diet, (+)-β-cedrene-containing diet, cedrene epoxide-containing diet, methyl cedryl ether-containing diet, methyl cedryl ketone-containing diet, cedrenol-containing diet and (+)-cedrol-containing diet]. The composition of diet is described in the following Table 5.
6-old-week C57BL/63 male mice were adapted to laboratory environment during one week and divided into HFD control and 8 test groups according to randommized block design. […] Diet was supplied with water at 10-11 o'clock every morning, and intake amount of diet and body weight was measured every day and once of three days, respectively. The body weight was measure at 2 hrs after removing feed bin to block sudden change of body weight according to feed intake, and feed efficiency was calculated by dividing body weight gain by amount of total intake amount of diet during total experimental period which is from initial day supplying experimental diet to sacrificed day. After experimental animals were fasted for above 12 hrs, they were anesthetized with diethylether, and their blood, liver and visceral fat tissues (epididymal fat, perirenal fat, mesenteric fat and abdominal fat) were collected. And then, they were washed with 0.1 M phosphate-buffered saline (pH 7.4), and their weights were measured. Blood taken from abdominal aorta was centrifuged at 1,000×g for 15 min to separate plasma.

Structure (SMILES)	Solubility [1]	inhibitory effect on adipogenesis (C. elegans)	Fat content (C. elegans; sample concentration 1 μg/ml)	Fat content (C. elegans; sample concentration 10 μg/ml)	Fat content (C. elegans; sample concentration 100 μg/ml)	Liver Triglyceride [2] [µmol/g]	IRI (insulin resistance index) [2]	Plasma Glucose [2] [mmol/L]	Plasma Insulin [2] [ng/mL]	Plasma Total cholesterol [2] [mmol/L]	Plasma Triglyceride [2] [mmol/L]	Body weight gain [3] [g/8 weeks]	total visceral fat weight [3] [mg/g body weight]	all fasting glucose, blood insulin concentration and insulin resistance index in comparison with control ([2]; 8-week)	Visceral fat weight compared to control ([3]; diet fed during 8-week)	total cholesterol concentration reduced compared to HFD ([2]; plasma, 8-week) [%]	triglyceride concentration of liver tissue reduced compared to HFD ([2]; 8-week) [%]	Plasma triglyceride concentration reduced compared to HFD ([2]; plasma, 8-week) [%]
C=C1CC[C@]23C[C@H]1C(C)(C)C2CC[C@H]3C (stereo partly drawn) [(+)-β-funebrene]	Fat soluble	notably inhibitory effect on adipogenesis	+1	+1	+2													
CC1(C)C=C[C@]23CCC[C@](C)(CCC12)C3 (single isomer, unassigned; (-)) [(−)-clovene, (−)-Clovene]	Fat soluble	notably inhibitory effect on adipogenesis	+2	+2	+2													
C[C@@H]1CC[C@H]2C(C)(C)[C@H]3C[C@@]12CC[C@@]3(C)O [(+)-cedrol]			+4	+4	+3	49.1 ± 4.10	1.45 ± 0.22 10^−3 pmol insulin × mmol glucose × L^−2	9.8 ± 0.99	0.86 ± 0.07	2.98 ± 0.20	1.31 ± 0.10	10.9 ± 0.85	92.4 ± 5.31	prone to be decreased in comparison with control, but statistical significance was not shown	higher than that in control			
C=C1[C@@H](O)C[C@@]23C[C@@H]1C(C)(C)C2CC[C@H]3C (single isomer, unassigned; (+)) [(+)-8(15)-cedrene-9-ol, (+)-8(15)-Cedren-9-ol]	Fat soluble	notably inhibitory effect on adipogenesis	+2	+1	+2													
C[C@@H]1CC[C@H]2C(C)(C)[C@H]3C[C@@]12CC[C@]3(C)O [(−)-epicedrol, (−)—epicedrol]		notably inhibitory effect on adipogenesis	+1	+1	+3													
C=C1CC[C@@]23C[C@@H]1C(C)(C)C2CC[C@H]3C (stereo partly drawn) [(+)-β-cedrene]	Fat soluble	notably inhibitory effect on adipogenesis	+2	+3	+2	16.6 ± 1.28	0.78 ± 0.11* 10^−3 pmol insulin × mmol glucose × L^−2	6.80 ± 0.41	0.70 ± 0.08	2.57 ± 0.19	1.32 ± 0.11	7.13 ± 0.89	48.0 ± 8.27				63	
C=C1C2CCC3C2[C@@H](C(C)C)CC[C@@]13C (single isomer, unassigned; (+)) [(+)-sativene]	Fat soluble	notably inhibitory effect on adipogenesis	+2	+2	+1													
CC1=CC[C@]23C[C@H]1C(C)(C)C2CC[C@H]3C (stereo partly drawn) [(+)-α-funebrene]	Fat soluble	notably inhibitory effect on adipogenesis	+3	+2	+2													

Continued, in another order:

Solubility [1]	Structure (SMILES)	inhibitory effect on adipogenesis (C. elegans)	Fat content (C. elegans; sample concentration 1 μg/ml)	Fat content (C. elegans; sample concentration 10 μg/ml)	Fat content (C. elegans; sample concentration 100 μg/ml)	Liver Triglyceride [2] [µmol/g]	IRI (insulin resistance index) [2]	Plasma Glucose [2] [mmol/L]	Plasma Insulin [2] [ng/mL]	Plasma Total cholesterol [2] [mmol/L]	Plasma Triglyceride [2] [mmol/L]	Body weight gain [3] [g/8 weeks]	total visceral fat weight [3] [mg/g body weight]	all fasting glucose, blood insulin concentration and insulin resistance index in comparison with control ([2]; 8-week)	Visceral fat weight compared to control ([3]; diet fed during 8-week)	total cholesterol concentration reduced compared to HFD ([2]; plasma, 8-week) [%]	triglyceride concentration of liver tissue reduced compared to HFD ([2]; 8-week) [%]	Plasma triglyceride concentration reduced compared to HFD ([2]; plasma, 8-week) [%]
Fat soluble	CC1=CCC23CC1C(C)(CO)C2CCC3C (stereo not shown) [cedrenol, Cedrenol]	notably inhibitory effect on adipogenesis	+2	+1	+1	25.0 ± 1.81	0.71 ± 0.09* 10^−3 pmol insulin × mmol glucose × L^−2	7.24 ± 0.56	0.58 ± 0.07	2.42 ± 0.22	1.20 ± 0.10	9.51 ± 1.47	57.8 ± 4.02					
Fat soluble	C[C@@H]1CC[C@H]2C(C)(C)[C@H]3C[C@@]12CC1OC13C (stereo partly shown) [cedrene epoxide, Cedrene epoxide]		+4	+3	+2	27.8 ± 2.41	0.94 ± 0.14* 10^−3 pmol insulin × mmol glucose × L^−2	7.34 ± 0.68	0.71 ± 0.04	2.81 ± 0.18	1.32 ± 0.08	12.4 ± 1.36	65.6 ± 4.43					
Fat soluble	C[C@@H]1CC[C@H]2C(C)(C)[C@H]3C[C@@]12CC[C@@]3(C)OC=O [cedryl formate, Cedryl formate]	notably inhibitory effect on adipogenesis	+3	+1	+1													
Fat soluble	CO[C@]1(C)CC[C@@]23C[C@@H]1C(C)(C)[C@@H]2CC[C@H]3C [methyl cedryl ether, Methyl cedryl ether]	notably inhibitory effect on adipogenesis	+1	+2	+2	24.4 ± 1.37	0.61 ± 0.08* 10^−3 pmol insulin × mmol glucose × L^−2	5.61 ± 0.53	0.67 ± 0.07	2.01 ± 0.24	1.29 ± 0.13	9.31 ± 0.91	50.8 ± 6.12			46		
Fat soluble	CC1=CC[C@@]23C[C@@H]1C(C)(C)C2CC[C@H]3C (stereo partly drawn) [(−)-α-cedrene]	notably inhibitory effect on adipogenesis	+2	+2	+2	16.1 ± 0.60	0.75 ± 0.13* 10^−3 pmol insulin × mmol glucose × L^−2	6.41 ± 0.57	0.67 ± 0.04	2.11 ± 0.16	0.81 ± 0.15	6.73 ± 1.02	40.0 ± 4.31				64	50
